Key:
[1] = test system: production of prostaglandin E2 by human fibroblasts; assay: Inhibition of Production of Prostaglandin E2 in Human Fibroblasts (IL-1 stimulation); format: cell-based; conditions: Fibroblast; human fibroblasts under stimulation with IL-1
Procedure: Test Example 2 Inhibition of Production of Prostaglandin E2 in Human Fibroblasts.
In order to examine the availability of the composition for inhibiting cytosolic phospholipase A2 (cPLA2) on the cells, the compounds of the present invention were tested for the effect on the production of prostaglandin E2 by human fibroblasts under the stimulation with IL-1 according to the method of J. M. Dayer et al (CACHECTIN/TUMOR NECROSIS FACTOR STIMULATES COLLAGENASE AND PROSTAGLANDIN E2 PRODUCTION BY HUMAN SYNOVIAL CELLS AND DERMAL FIBROBLASTS; J. M. Dayer, B, Beutler and A, Cerami, J. EXP. Med., 1985, 162, 2163-2168.).

[2] = target: T1, cPLA2 (Homo sapiens, UniProt P47712); assay: cPLA2 Inhibitory Activity; format: biochemical; conditions: 1-palmitoyl-2-[14C]-arachidonoyl-sn-glycero-3-phosphocholine 2.5 μM, sn-1,2-dioleoylglycerol 1.25 μM; pH 7.5, 15 min at 37° C.
T1 sequence (P47712 1-749): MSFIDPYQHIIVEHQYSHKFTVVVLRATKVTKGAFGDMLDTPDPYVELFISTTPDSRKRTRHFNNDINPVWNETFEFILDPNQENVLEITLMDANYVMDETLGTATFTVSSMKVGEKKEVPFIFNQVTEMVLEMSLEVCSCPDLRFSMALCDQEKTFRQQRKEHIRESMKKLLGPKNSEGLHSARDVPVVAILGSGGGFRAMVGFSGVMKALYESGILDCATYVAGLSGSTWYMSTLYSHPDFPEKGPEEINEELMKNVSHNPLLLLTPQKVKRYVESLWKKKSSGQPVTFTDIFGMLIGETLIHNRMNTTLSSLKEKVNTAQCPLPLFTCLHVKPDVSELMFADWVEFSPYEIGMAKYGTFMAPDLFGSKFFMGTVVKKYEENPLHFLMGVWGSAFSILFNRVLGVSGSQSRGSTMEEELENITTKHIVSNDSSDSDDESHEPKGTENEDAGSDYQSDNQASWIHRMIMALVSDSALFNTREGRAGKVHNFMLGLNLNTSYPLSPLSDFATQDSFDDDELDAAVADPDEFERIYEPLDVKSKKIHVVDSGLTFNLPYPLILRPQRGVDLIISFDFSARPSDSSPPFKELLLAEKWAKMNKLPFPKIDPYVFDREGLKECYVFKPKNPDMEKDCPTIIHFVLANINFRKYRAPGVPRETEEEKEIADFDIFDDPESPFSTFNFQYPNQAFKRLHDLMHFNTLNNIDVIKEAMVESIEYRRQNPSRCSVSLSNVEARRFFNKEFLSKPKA
Procedure: Test Example 1 cPLA2 Inhibitory Activity The compounds of the present invention were tested for the cPLA2 inhibitory activity according to the method disclosed in […]. Roberts, […], and J. E. Putnam, J. Biol. Chem., 1991, 266, 5268-5272 as outlined below. […] The reaction mixture includes 50 mM HEPES buffer (pH 7.5), 1 mM calcium chloride, 150 mM sodium chloride, 0.1 mg/ml bovine serum albumin, and 1.7 mM dithiothreitol. To the reaction mixture was added the compound of the present invention and the substrate solution. The reaction was allowed to start by adding an enzyme and continued for 15 min at 37° C. The fatty acids released by the reaction were extracted by the method described in V. P. Dole, and H. Meinertz, J. Biol. Chem., 1960, 235, 2595-2599 and its radiation activity was measured on a liquid scintillation counter. Control was obtained by conducting the experiment in the same manner except that a compound of the present invention was not added.

| SMILES | IC50 [2] [µM] | IC50 [1] [µM] |
| --- | --- | --- |
| O=C1NC(=O)/C(=C/c2ccc(C(=O)NC[C@@H]3C[C@@H](OCc4ccccc4-c4ccccc4)CN3C(=O)c3ncccc3C(=O)c3ccccc3)cc2)S1 [Compound A-11] | 0.86 | 0.23 |
| O=C1NC(=O)/C(=C/c2ccc(S(=O)(=O)NC[C@@H]3C[C@@H](OCc4ccccc4-c4ccccc4)CN3C(=O)c3ccccc3C(=O)c3ccc(F)cc3)cc2)S1 [Compound A-62] | 0.26 | 1.1 |
| Cc1cccc(-c2ccccc2O[C@@H]2C[C@@H](CNC(=O)c3ccc(/C=C4\SC(=O)NC4=O)cc3)N(C(=O)c3ccccc3C(=O)c3ccc(F)cc3)C2)c1 [Compound A-108] | 0.044 | 0.47 |
| COc1cccc(-c2ccccc2)c1O[C@@H]1C[C@@H](CNC(=O)c2ccc(/C=C3\SC(=O)NC3=O)cc2)N(C(=O)c2ccccc2C(=O)c2ccc(F)cc2)C1 [Compound A-117] | 0.015 | 0.2 |
| O=C1NC(=O)/C(=C/c2ccc(C(=O)NC[C@@H]3C[C@@H](Oc4ccc5ccccc5c4-c4ccccc4)CN3C(=O)c3ccccc3C(=O)c3ccc(F)cc3)cc2)S1 [Compound A-86] | 0.028 | 0.093 |
| O=C1NC(=O)/C(=C/c2ccc(NC(=O)[C@@H]3C[C@@H](OCc4ccccc4-c4ccccc4)CN3C(=O)c3ccccc3C(=O)c3ccc(Cl)cc3)cc2)S1 [Compound B-3] | 0.42 | 3.9 |
| COc1ccccc1-c1ccccc1O[C@@H]1C[C@@H](CNC(=O)c2ccc(/C=C3\SC(=O)NC3=O)cc2)N(C(=O)c2ccccc2C(=O)c2ccc(F)cc2)C1 [Compound A-107] | 0.041 | 1.1 |
| O=C1NC(=O)/C(=C/c2ccc(C(=O)NC[C@@H]3C[C@@H](OCc4ccccc4-c4ccccc4)CN3C(=O)C3CCCCC3C(=O)c3ccccc3)cc2)S1 (stereo partly shown) [Compound A-10] | 3.2 | 0.47 |
| CC(C)c1cccc(Br)c1O[C@@H]1C[C@@H](CNC(=O)c2ccc(/C=C3\SC(=O)NC3=O)cc2)N(C(=O)c2ccccc2C(=O)c2ccc(F)cc2)C1 [Compound A-100] | – | 0.32 |
| O=C1NC(=S)S/C1=C\c1ccc(S(=O)(=O)NC[C@@H]2C[C@@H](OCc3ccccc3-c3ccccc3)CN2C(=O)c2ccccc2C(=O)c2ccc(F)cc2)s1 [Compound A-61] | – | 0.97 |
| O=C1NC(=O)/C(=C/c2ccc(C(=O)NC[C@@H]3C[C@@H](OCc4cccc(-c5ccc6ccccc6c5)c4)CN3C(=O)c3ccccc3C(=O)c3ccc(F)cc3)cc2)S1 [Compound A-42] | 0.14 | – |
| O=C1NC(=S)S/C1=C\c1ccc(S(=O)(=O)NC[C@@H]2C[C@@H](OCc3ccccc3-c3ccccc3)CN2C(=O)c2ccccc2C(=O)c2ccc(F)cc2)cc1 [Compound A-63] | – | 0.9 |
| O=C1NC(=O)/C(=C/c2ccc(CN(C[C@@H]3C[C@@H](OCc4ccccc4-c4ccccc4)CN3C(=O)c3ccccc3C(=O)c3ccc(F)cc3)C(=O)c3ccccc3)cc2)S1 [Compound G-9] | 1.3 | – |
| CC(=O)N(Cc1ccc(/C=C2\SC(=S)NC2=O)cc1)C[C@@H]1C[C@@H](OCc2ccccc2-c2ccccc2)CN1C(=O)c1ccccc1C(=O)c1ccc(F)cc1 [Compound G-5] | 1.6 | – |
| O=C1NC(=O)/C(=C/c2ccc(C(=O)NC[C@@H]3C[C@@H](Oc4ccc5c6c4CCCN6CCC5)CN3C(=O)c3ccccc3C(=O)c3ccc(F)cc3)cc2)S1 [Compound A-92] | 0.057 | – |
| CC(C)CN(CC(C)C)[C@@H]1C[C@@H](CNC(=O)c2ccc(/C=C3\SC(=O)NC3=O)cc2)N(C(=O)c2ccccc2C(=O)c2ccc(F)cc2)C1 [Compound M-15] | 0.15 | – |
| CCOc1cccc(-c2ccccc2O[C@@H]2C[C@@H](CNC(=O)c3ccc(/C=C4\SC(=O)NC4=O)cc3)N(C(=O)c3ccccc3C(=O)c3ccc(F)cc3)C2)c1 [Compound A-110] | 0.1 | – |
| CC(C)CN(C(c1ccccc1)c1ccccc1)[C@@H]1C[C@@H](CNC(=O)c2ccc(/C=C3\SC(=O)NC3=O)cc2)N(C(=O)c2ccccc2C(=O)c2ccc(F)cc2)C1 [Compound M-13] | 0.013 | – |
| O=C1NC(=O)/C(=C/c2ccc(C(=O)NC[C@@H]3C[C@@H](Oc4ccccc4-c4ccc(-c5ccccc5)cc4)CN3C(=O)c3ccccc3C(=O)c3ccc(F)cc3)cc2)S1 [Compound A-113] | 0.12 | – |
| CC(C)CN(C(c1ccccc1)c1ccccc1)[C@@H]1C[C@@H](CNC(=O)/C=C/c2ccc(/C=C3\SC(=O)NC3=O)cc2)N(C(=O)c2ccccc2C(=O)c2ccc(F)cc2)C1 [Compound M-20] | 0.0064 | – |
| COc1cccc(-c2cccc(O[C@@H]3C[C@@H](CNC(=O)c4ccc(/C=C5\SC(=O)NC5=O)cc4)N(C(=O)c4ccccc4C(=O)c4ccc(F)cc4)C3)c2)c1 [Compound A-99] | 0.037 | – |
| O=C1NC(=O)/C(=C/c2cccc(C(=O)NC[C@@H]3C[C@@H](OCc4ccccc4-c4ccccc4)CN3C(=O)c3ccccc3C(=O)c3ccc(F)cc3)c2)S1 [Compound A-56] | 2.5 | – |

The remaining molecules from weak to strong by IC50 [2], led by results:

| IC50 [2] [µM] | SMILES | IC50 [1] [µM] |
| --- | --- | --- |
| 15 | O=C1NC(=O)/C(=C/c2ccc(C(=O)NCCC[C@@H]3C[C@@H](OCc4ccccc4-c4ccccc4)CN3C(=O)c3ccccc3C(=O)c3ccc(F)cc3)cc2)S1 [Compound F-1] | – |
| 3.3 | CN(Cc1ccc(/C=C2\SC(=O)NC2=O)cc1)C[C@@H]1C[C@@H](OCc2ccccc2-c2ccccc2)CN1C(=O)c1ccccc1C(=O)c1ccc(F)cc1 [Compound G-3] | – |
| 1.2 | O=C1NC(=O)/C(=C/c2ccc(C(=O)NC[C@@H]3C[C@@H](OCc4ccccc4-c4ccccc4)CN3C(=O)c3ccccc3C(=O)c3ccsc3)cc2)S1 [Compound A-18] | 0.38 |
| 1 | O=C1NC(=O)/C(=C/c2ccc(C(=O)NC[C@@H]3C[C@@H](OCc4ccccc4-c4ccccc4)CN3C(=O)c3cccc4c3C(=O)c3ccccc3-4)cc2)S1 [Compound A-26] | 0.17 |
| 0.81 | O=C1NC(=S)S/C1=C\c1ccc(NC(=O)[C@@H]2C[C@@H](SCc3ccccc3-c3ccccc3)CN2C(=O)c2ccccc2C(=O)c2ccc(F)cc2)s1 [Compound J-4] | 5.2 |
| 0.2 | O=C1NC(=O)/C(=C/c2ccc(C(=O)NC[C@@H]3C[C@@H](Oc4cccc(-c5cccc(O)c5)c4)CN3C(=O)c3ccccc3C(=O)c3ccc(F)cc3)cc2)S1 [Compound A-106] | – |
| 0.15 | Nc1cccc(-c2ccccc2CO[C@@H]2C[C@@H](CNC(=O)c3ccc(/C=C4\SC(=O)NC4=O)cc3)N(C(=O)c3ccccc3C(=O)c3ccc(F)cc3)C2)c1 [Compound A-46] | – |
| 0.14 | CN(Cc1ccccc1)[C@@H]1C[C@@H](C(=O)Nc2ccc(/C=C3\SC(=S)NC3=O)cc2)N(C(=O)c2ccccc2C(=O)c2ccc(F)cc2)C1 [Compound N-1] | 0.76 |
| 0.079 | CC(C)CN(Cc1ccccc1)[C@@H]1C[C@@H](CNC(=O)/C=C/c2ccc(/C=C3\SC(=O)NC3=O)cc2)N(C(=O)c2ccccc2C(=O)c2ccc(F)cc2)C1 [Compound M-18] | 8.8 |
| 0.051 | Cc1ccccc1-c1ccccc1O[C@@H]1C[C@@H](CNC(=O)c2ccc(/C=C3\SC(=O)NC3=O)cc2)N(C(=O)c2ccccc2C(=O)c2ccc(F)cc2)C1 [Compound A-97] | 0.64 |
| 0.039 | O=C1NC(=O)/C(=C/c2ccc(C(=O)NC[C@@H]3C[C@@H](SCc4ccccc4-c4ccccc4)CN3C(=O)c3ccccc3C(=O)c3ccc(F)cc3)s2)S1 [Compound I-7] | 0.69 |
| 0.039 | CC(C)N(Cc1ccccc1-c1ccccc1)[C@@H]1C[C@@H](CNC(=O)c2ccc(/C=C3\SC(=O)NC3=O)cc2)N(C(=O)c2ccccc2C(=O)c2ccc(F)cc2)C1 [Compound M-9] | 3.6 |
| 0.036 | CC(C)CCN(Cc1ccccc1-c1ccccc1)[C@@H]1C[C@@H](CNC(=O)c2ccc(/C=C3\SC(=O)NC3=O)cc2)N(C(=O)c2ccccc2C(=O)c2ccc(F)cc2)C1 [Compound M-11] | 0.97 |
